Source: US6420563B1, “Small molecule modulators of G protein-coupled receptor six” (Arena Pharmaceuticals, Inc., priority 1998, dated 2002)
pIC50: −log10 of the molar value. Like-named read-outs stand apart in the source and are kept apart here.

Biological target: T1, GPR6:Gsα-Fusion Protein (Homo sapiens, UniProt P46095)
T1 construct: expressed in transfected cells
Assay: [35S]GTPγS membrane binding assay (Example 4A)
Type: biochemical
In short: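 Membranes from stable 293 cells expressing the fusion protein were pre-incubated 5-10 min at RT with compounds (10 μM final) in GDP buffer. [35S]GTPγS (0.6 nM as added) was then bound for 60 min at RT and counted after centrifugation. Inverse agonism was scored as reduced receptor-driven GTPγS binding.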

T1 sequence (P46095 with tags, fused parts or gaps): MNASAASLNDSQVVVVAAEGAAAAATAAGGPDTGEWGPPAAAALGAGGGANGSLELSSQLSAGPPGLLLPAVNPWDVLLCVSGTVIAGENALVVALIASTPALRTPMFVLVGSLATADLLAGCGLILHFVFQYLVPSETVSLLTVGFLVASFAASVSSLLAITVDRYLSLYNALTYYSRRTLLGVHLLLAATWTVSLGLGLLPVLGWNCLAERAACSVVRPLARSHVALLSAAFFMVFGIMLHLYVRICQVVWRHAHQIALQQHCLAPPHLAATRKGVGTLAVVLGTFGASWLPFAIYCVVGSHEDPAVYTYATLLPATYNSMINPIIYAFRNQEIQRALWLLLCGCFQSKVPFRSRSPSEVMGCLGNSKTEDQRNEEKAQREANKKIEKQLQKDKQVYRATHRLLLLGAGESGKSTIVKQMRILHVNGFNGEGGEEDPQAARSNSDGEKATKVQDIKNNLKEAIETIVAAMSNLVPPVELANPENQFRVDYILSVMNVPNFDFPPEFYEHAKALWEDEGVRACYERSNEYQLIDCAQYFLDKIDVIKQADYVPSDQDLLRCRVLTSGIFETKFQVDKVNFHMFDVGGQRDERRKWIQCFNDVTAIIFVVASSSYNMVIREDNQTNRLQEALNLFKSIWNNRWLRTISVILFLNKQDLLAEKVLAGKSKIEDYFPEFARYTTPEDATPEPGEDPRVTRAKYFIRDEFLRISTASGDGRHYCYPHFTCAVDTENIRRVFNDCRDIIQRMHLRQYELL

Structure (SMILES): O=C(N=C1SSC2=NCCN21)c1cccs1 [ARE112, N-(5,6-dihydro-3H-imidazo[2,1-c]-1,2,4-dithiazol-3-ylidene)-thiophen-2-carboxamide]
- pIC50 (mean +/- standard deviation (number of assays in brackets), read-out: IC50 Values GTP Assay Example 4A): 6.38
- pIC50 (representative IC50 curve, assay protocol of Example 4A, read-out: IC50 value against the GPR6 receptor (FIG. 4)): 6.82
